Columns and labels:
[1] = test system: Primary vaginal epithelial cells; experiment: Glycogen production, periodic acid Schiff (PAS) assay; type: cell-based, human; details: 0.1 mg/mL, 5 days treatment, p<0.05 vs control
Method: Primary vaginal epithelial cells were cultured in 96-well plates. Five samples were tested for each group. Treatment was for 5 days with culture medium solutions (PrEBM, Clonetics CC-3165) without (the control group) and with 0.1 mg/mL hyaluronic acid (Sigma H-1751). The media were changed every other day. At the end the treatment, the media was removed, and the well was washed twice with HBSS.
Glycogen tests were performed using a periodic acid Schiff (PAS) assay as described below. Before the test, cells were fixed with a 10 vol % Formalin/ethanol solution for 1 hour at room temperature, followed by continuous rinsing with deionized (DI) water for 1 minute. Harleco® PAS Aassay Kit (from EM Science 64945/43) was used for glycogen detection. The basic principle is that the hydroxy groups on the glycogen units were first oxidized into aldehyde groups by periodic acid, and the aldehyde groups reacted with Schiff's agent to produce a red colorant. The specific assay operations were all done at room temperature as follows: • 1. Periodic acid reagent was added to the well/chamber and allowed to stand for 10 minutes). • 2. Samples were continuously rinsed in water for one minute. • 3. Schiff's reagent was added and allowed to stand for 15 minutes. • 4. […] The numbers of glycogen-stained positive cells were manually counted under microscope.

[2] = test system: E. coli with P family pili, ATCC 53505; experiment: E. coli adhesion test on A431 cells; type: cell-based
Method: Cultured A431 cells were used as a model human epithelial cell line. A431 cells were obtained from American Cell Type Culture Collection, catalog # CRL-1555. A monolayer of A431 cells was grown on a 24-well tissue culture plate until confluent. E. coli with P family pili, ATCC 53505, were cultured in trypticase soy broth (TSB) overnight. Phosphate buffered saline (PBS, control) or hyaluronic acid (Sigma, catalog # H1876) solutions at a concentration of 1 mg/ml or 5 mg/ml in PBS were added to the A431 cell layers, using a volume of 1.2 ml/well. For comparison, a control plate was set up and treated identically as the test plate, except that the wells in the control plate were given PBS without hyaluronic acid. After incubation for 30 minutes at 37° C., 0.5 ml of solution was removed from the wells and 0.5 ml of the bacteria suspension was added. […] After 60 minutes, the supernatant in each well was removed and the wells were rinsed thoroughly with PBS to remove all non-bound bacteria. Trypticase soy broth was then added to wells, and the system was incubated at 37° C. with shaking at 100 rpm/min for 2 hours. Bacterial concentration was measured by the detection of optical density of bacterial suspension at 540 nm.
(§1) All the data are expressed as mean ± SEM and were analyzed by one-way Analysis of Variance (ANOVA) followed by a Tukey-Kramer Multiple Comparisons Test. […]

E. coli, ATCC 53505 = experiment: Effect on E. coli growth (optical density at 540 nm); type: cell-based; details: 1 mg/ml or 5 mg/ml, 1, 2 and 3 hours
Method: To test whether hyaluronic acid could influence cellular growth, E. coli, ATCC 53505 cells were cultured overnight in trypticase soy broth. The culture was then diluted to an optical density of 0.1 and hyaluronic acid (1 mg/ml or 5 mg/ml) in PBS was incubated with the E. coli suspension. A control comprising a suspension E. coli treated with PBS was also prepared. The test and control cells were incubated at 37° C. with shaking and the optical density of the bacterial suspensions at 540 nm was measured at 1, 2 and 3 hours after addition of the hyaluronic acid or PBS. All the data are expressed as mean ± SEM and were analyzed by one-way Analysis of Variance (ANOVA) followed by a Tukey-Kramer Multiple Comparisons Test. Differences were considered significant at the level of p<0.05.

[3] = test system: Candida albicans, ATCC 10231; experiment: Candida albicans attachment to A431 cells; type: cell-based
Method: A culture of Candida albicans, ATCC 10231, was started in peptone/glucose culture medium and incubated at 37° C. with shaking for three days before the experiment. A monolayer of A431 cells, ATCC CRL-1555, was grown on a 24-well tissue culture plate until confluent. Hyaluronic acid at concentration of 1 mg/ml or 5 mg/ml in PBS was added to the wells (1.2 ml/well), and the plates were incubated for 30 minutes at 35° C. A control plate of confluent A431 cells was also prepared that received 1.2 ml/well PBS and no hyaluronic acid. After the 30 min incubation, 0.5 ml of solution was removed from the wells and 0.5 ml of yeast suspension (1×10^6 cfu/ml) was added. After 2 hours of incubation, the supernatant was removed from the wells and the wells were rinsed thoroughly with PBS to remove all non-bound yeast. Then, 0.2 ml of 0.25% trypsin/EDTA was added to each well and the plates were incubated at 35° C. for 15 min. Trypsinization was stopped by adding 1 ml of 10% fetal bovine serum in culture medium. The trypsinized cell/yeast suspension was centrifuged and re-suspended in 1 ml of the medium. […] The number of colonies on each plate was counted and the number of yeast attached to the cells in each well was calculated.
as §1

[4] = test system: Normal human vaginal epithelial cells (NHVE 5164); experiment: Vaginal cell proliferation (CellTiter 96 Aqueous One Solution); type: cell-based; details: complete medium, 72 hours
Method: Normal human vaginal epithelial cells from Clonetics (NHVE 5164) were subcultured into 96 well plates at 37° C., 5% CO2. Cells were cultured with basal PrEBM (Clonetics CC 3165) supplemented with cell growth medium bulletKit (Clonetics, cc-3166). Cells were treated with HLA having different molecular weights (MW), HLA1 (Sigma #H1751, intrinsic viscosity=100), HLA2 (MW, 150-500 k, Carbomer #8-01250) and HLA3 (a disaccharide, MW 405, Sigma #H9649). HLA was dissolved in either basal culture medium or basal medium supplemented with growth factors (complete medium) at concentration of 100, 10 or 1 μg/ml. Control group cells were treated with culture medium only. Each treatment group included 6 samples. The media for the different samples were changed 48 hours later and cell proliferation was examined at 72 hours by using CellTiter 96 Aqueous One Solution from Promega (#TB245). Twenty μl of the reagent was added to each well. The plates were returned to cell culture incubator for 3 hours. The absorbance in each well was measured at 490 nm with a microtiter reader.

Question: hyaluronic acid was tested. Which “glycogen production (numbers of glycogen-stained positive cells)” value [1] did it give?
Answer: increase in glycogen production was statistically significant

Question: What about the “number of E. coli attached to A431 cells” value ([2]; 1 mg/ml in PBS) of the same substance?
Answer: lesser effect on E. coli adhesion

Question: And the “number of E. coli attached to A431 cells” value ([2]; 5 mg/ml in PBS)?
Answer: significantly inhibited

Question: And the E. coli growth (E. coli, ATCC 53505)?
Answer: neither of the hyaluronic acid solutions had any effect on bacterial growth

Question: And the “number of Candida albicans adhering to A431 cells” value ([3]; 1 mg/ml in PBS)?
Answer: the effect was not so significant

Question: And the “number of Candida albicans adhering to A431 cells” value ([3]; 5 mg/ml in PBS)?
Answer: significantly inhibited

Question: What does the source list for hyaluronic acid [HLA1]?
Answer: vaginal cell proliferation compared to control group ([4]; 100 μg/ml): significantly promoted vaginal cell proliferation; vaginal cell proliferation compared to control group ([4]; low concentrations 10 and 1 μg/ml): no significant effect on cell proliferation

Question: hyaluronic acid [HLA2] was tested. Which “vaginal cell proliferation compared to control group” value ([4]; any of the three concentrations tested (100, 10, 1 μg/ml)) did it give?
Answer: no statistically significant effect

Reference: patent US20050095219A1, “Compositions for promoting vaginal cell proliferation and maturation” (priority 2003, published 2005)
